Results taken from patent US20130143742A1, “HERBICIDAL COMPOSITION” (SUMITOMO CHEMICAL COMPANY, LIMITED, priority 2011, published 2013).
Structures can show the parent of a compound that is named as a salt.

Legend:
[1] = tested on: barnyardgrass (Echinochloa crus-galli); assay: Example 4: herbicidal activity, soil treatment, weed sown 9 days after treatment; type: in vivo; settings: score 0 to 100; 1,000 g/ha; 29 days after the chemical treatment (20 days after sowing)
Protocol: (§1) Plastic pots each having a diameter of 24 cm and a height of 21 cm were filled with the soil. A water dilution of a glyphosate potassium salt (liquid formulation containing 48% of a glyphosate potassium salt, manufactured by Nissan Chemical Industries, Ltd. under the trade name of Roundup Maxload) was prepared. A mixed solution of a water dilution of a flumioxazin water dispersible granule (water dispersible granule containing 51% of flumioxazin, manufactured by Valent USA Corporation under the trade name of Valor SX) and a water dilution of a saflufenacil was prepared. A mixed solution of a water dilution of a glyphosate potassium salt, a water dilution of a flumioxazin water dispersible granule and a water dilution of Saflufenacil was prepared. Each of the solutions thus prepared above was uniformly sprayed over the pots using a sprayer in an amount of 500 L/ha. The water dilution of saflufenacil was prepared by dissolving a predetermined amount of saflufenacil in acetone containing 2% (w/v) of Tween 20 (surfactant, manufactured by Tokyo Chemical Industry Co., Ltd.) and diluting the solution with water so that the acetone concentration will be 10 volume %.
(§2) After a chemical treatment, the pots were put in a greenhouse. […]
Seedlings of the plant were cultivated in the greenhouse and, 29 days after the chemical treatment (20 days after sowing), herbicidal activity was evaluated.

[2] = tested on: ivyleaf morningglory (Ipomoea hederacea); assay: Example 3: herbicidal activity, soil treatment, weed sown 21 days after treatment; type: in vivo; settings: score 0 to 100; 20 g/ha; 45 days after the chemical treatment (24 days after sowing)
Protocol: as §1, with “of saflufenacil” for “of a glyphosate potassium salt (liquid formulation containing 48% of a glyphosate potassium salt, manufactured by Nissan Chemical Industries, Ltd. under the trade name of Roundup Maxload)”, “a glyphosate potassium salt (liquid formulation containing 48% of a glyphosate potassium salt, manufactured by Nissan Chemical Industries, Ltd. under the trade name of Roundup Maxload)” for “a saflufenacil”, “of saflufenacil,” for “of a glyphosate potassium salt,”, “of a glyphosate potassium salt” for “of Saflufenacil”
as §2
Seedling of the plant were cultivated in the greenhouse and, […] after the chemical treatment (24 days after sowing), herbicidal activity was evaluated.

O=C(O)CNCP(=O)(O)O [Glyphosate potassium salt, glyphosate-potassium]
Herbicidal activity Barnyardgrass [1]: 0

CC(C)N(C)S(=O)(=O)NC(=O)c1cc(-n2c(=O)cc(C(F)(F)F)n(C)c2=O)c(F)cc1Cl [Saflufenacil, N′-{2-chloro-4-fluoro-5-[1,2,3,6-tetrahydro-3-methyl-2,6-dioxo-4-(trifluoromethyl)pyrimidin-1-yl]benzoyl}-N-isopropyl-N-methylsulfamide]
Herbicidal activity Ivyleaf morningglory [2]: 45
